In ChEMBL document CHEMBL1201862, “PubChem BioAssay data set” (2004):
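The compound was tested at five concentrations on cells cultured in 96-well plates, with a 48-hour exposure period. Here, GI50 denotes the concentration required for 50% inhibition of growth.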 The source made the active and inactive calls. No stated cut-off is given here; in the data, active = GI50 up to about 1.1 µM and inactive = higher.

Legend:
Experiment in all cases: DTP human tumour cell line panel, 48 h
786-0 = tested on: 786-0
A498 = tested on: A498
A549 = tested on: A549
ACHN = tested on: ACHN
BT-549 = tested on: BT-549
COLO 205 = tested on: COLO 205
EKVX = tested on: EKVX
HCC 2998 = tested on: HCC 2998
HCT-116 = tested on: HCT-116
HCT-15 = tested on: HCT-15
HL-60 = tested on: HL-60
HOP-62 = tested on: HOP-62
HT-29 = tested on: HT-29
Hs-578T = tested on: Hs-578T
IGROV-1 = tested on: IGROV-1
K562 = tested on: K562
KM12 = tested on: KM12
MCF7 = tested on: MCF7
MDA-MB-231 = tested on: MDA-MB-231
MDA-MB-435 = tested on: MDA-MB-435
MDA-N = tested on: MDA-N
MOLT-4 = tested on: MOLT-4
Malme-3M = tested on: Malme-3M
NCI-H23 = tested on: NCI-H23
NCI-H460 = tested on: NCI-H460
NCI-H522 = tested on: NCI-H522
NCI/ADR-RES = tested on: NCI/ADR-RES
OVCAR-3 = tested on: OVCAR-3
OVCAR-5 = tested on: OVCAR-5
OVCAR-8 = tested on: OVCAR-8
PC-3 = tested on: PC-3
RPMI-8226 = tested on: RPMI-8226
SF-295 = tested on: SF-295
SF-539 = tested on: SF-539
SK-MEL-28 = tested on: SK-MEL-28
SK-MEL-2 = tested on: SK-MEL-2
SK-MEL-5 = tested on: SK-MEL-5
SN12C = tested on: SN12C
SNB-19 = tested on: SNB-19
SR = tested on: SR
SW-620 = tested on: SW-620
T47D = tested on: T47D
TK-10 = tested on: TK-10
U-251 = tested on: U-251
UACC-257 = tested on: UACC-257
UACC-62 = tested on: UACC-62
UO-31 = tested on: UO-31
CAKI-1 = tested on: CAKI-1
CCRF-CEM = tested on: CCRF-CEM
DU-145 = tested on: DU-145
HOP-92 = tested on: HOP-92
LOX IMVI = tested on: LOX IMVI
M14 = tested on: M14
NCI-H226 = tested on: NCI-H226
OVCAR-4 = tested on: OVCAR-4
RXF 393 = tested on: RXF 393
SF-268 = tested on: SF-268
SNB-75 = tested on: SNB-75
SK-OV-3 = tested on: SK-OV-3

For N[C@@H](CCC(=O)NCP(=O)(O)O)C(=O)O, the GI50 (786-0) was > 100 µM (inactive), the GI50 (A498) was > 100 µM (inactive) and the GI50 (A549) was > 100 µM (inactive). For the same molecule, the GI50 (ACHN) was > 100 µM (inactive), the GI50 (BT-549) was > 100 µM (inactive) and the GI50 (COLO 205) was > 100 µM (inactive). For the same molecule, the GI50 (EKVX) was > 100 µM (inactive), the GI50 (HCC 2998) was > 100 µM (inactive) and the GI50 (HCT-116) was > 100 µM (inactive). The GI50 (HCT-15) was > 100 µM, the GI50 (HL-60) was > 100 µM (inactive) and the GI50 (HOP-62) was > 100 µM (inactive). For the same molecule, the GI50 (HT-29) was > 100 µM (inactive), the GI50 (Hs-578T) was > 100 µM (inactive) and the GI50 (IGROV-1) was > 100 µM (inactive). For the same molecule, the GI50 (K562) was > 100 µM (inactive), the GI50 (KM12) was > 100 µM (inactive) and the GI50 (MCF7) was > 100 µM (inactive). For the same molecule, the GI50 (MDA-MB-231) was > 100 µM (inactive), the GI50 (MDA-MB-435) was > 100 µM (inactive) and the GI50 (MDA-N) was > 100 µM (inactive). The GI50 (MOLT-4) was > 100 µM (inactive), the GI50 (Malme-3M) was > 100 µM (inactive) and the GI50 (NCI-H23) was > 100 µM (inactive). The GI50 (NCI-H460) was > 100 µM (inactive), the GI50 (NCI-H522) was 18.2 µM (inactive) and the GI50 (NCI/ADR-RES) was > 100 µM (inactive). For the same molecule, the GI50 (OVCAR-3) was > 100 µM (inactive), the GI50 (OVCAR-5) was > 100 µM (inactive) and the GI50 (OVCAR-8) was > 100 µM (inactive). The GI50 (PC-3) was > 100 µM (inactive), the GI50 (RPMI-8226) was > 100 µM (inactive) and the GI50 (SF-295) was > 100 µM (inactive). For the same molecule, the GI50 (SF-539) was > 100 µM (inactive), the GI50 (SK-MEL-28) was > 100 µM (inactive) and the GI50 (SK-MEL-2) was > 100 µM (inactive). For the same molecule, the GI50 (SK-MEL-5) was > 100 µM (inactive), the GI50 (SN12C) was > 100 µM (inactive) and the GI50 (SNB-19) was > 100 µM (inactive). The GI50 (SR) was > 100 µM (inactive), the GI50 (SW-620) was > 100 µM (inactive) and the GI50 (T47D) was > 100 µM (inactive). The GI50 (TK-10) was > 100 µM (inactive), the GI50 (U-251) was > 100 µM (inactive) and the GI50 (UACC-257) was > 100 µM (inactive). For the same molecule, the GI50 (UACC-62) was > 100 µM (inactive) and the GI50 (UO-31) was > 100 µM (inactive).

For CC(=O)C1=C(C)N(c2ccc(C)cc2)C2(O)C=CC(=O)C3C(=O)N(c4ccccc4)C(=O)C132 (stereo not given), the GI50 (786-0) was 30.6 µM (inactive), the GI50 (A498) was 20.2 µM (inactive) and the GI50 (A549) was 38.3 µM (inactive). The GI50 (ACHN) was 15.9 µM (inactive), the GI50 (BT-549) was 17.4 µM (inactive) and the GI50 (CAKI-1) was 18.6 µM (inactive). For the same molecule, the GI50 (CCRF-CEM) was 3.9 µM (inactive), the GI50 (COLO 205) was 23.3 µM (inactive) and the GI50 (DU-145) was 23.4 µM (inactive). For the same molecule, the GI50 (EKVX) was 32.6 µM (inactive), the GI50 (HCC 2998) was 22.5 µM (inactive) and the GI50 (HCT-116) was 6.49 µM (inactive). For the same molecule, the GI50 (HCT-15) was 11.2 µM, the GI50 (HL-60) was 2.47 µM (inactive) and the GI50 (HOP-62) was 25.9 µM (inactive). The GI50 (HOP-92) was 16.8 µM (inactive), the GI50 (HT-29) was 18.6 µM (inactive) and the GI50 (Hs-578T) was 29.7 µM (inactive). The GI50 (IGROV-1) was 8.43 µM (inactive), the GI50 (K562) was 3.42 µM (inactive) and the GI50 (KM12) was 21.9 µM (inactive). For the same molecule, the GI50 (LOX IMVI) was 3.08 µM (inactive), the GI50 (M14) was 24.4 µM (inactive) and the GI50 (MCF7) was 8.3 µM (inactive). For the same molecule, the GI50 (MDA-MB-231) was 22.5 µM (inactive), the GI50 (MDA-MB-435) was 36.3 µM (inactive) and the GI50 (Malme-3M) was 19.6 µM (inactive). For the same molecule, the GI50 (NCI-H226) was 17.1 µM (inactive), the GI50 (NCI-H23) was 17.1 µM (inactive) and the GI50 (NCI-H460) was 29.4 µM (inactive). For the same molecule, the GI50 (NCI-H522) was 7.89 µM (inactive), the GI50 (NCI/ADR-RES) was 54.2 µM (inactive) and the GI50 (OVCAR-3) was 22.3 µM (inactive). The GI50 (OVCAR-4) was 20.8 µM (inactive), the GI50 (OVCAR-5) was 55.2 µM (inactive) and the GI50 (OVCAR-8) was 23.3 µM (inactive). For the same molecule, the GI50 (PC-3) was 22.1 µM (inactive), the GI50 (RPMI-8226) was 3.85 µM (inactive) and the GI50 (RXF 393) was 20.3 µM (inactive). For the same molecule, the GI50 (SF-268) was 31 µM (inactive), the GI50 (SF-295) was 14.4 µM (inactive) and the GI50 (SF-539) was 24.4 µM (inactive). The GI50 (SK-MEL-28) was 19.5 µM (inactive), the GI50 (SK-MEL-2) was 12.5 µM (inactive) and the GI50 (SK-MEL-5) was 15.4 µM (inactive). For the same molecule, the GI50 (SN12C) was 15.5 µM (inactive), the GI50 (SNB-19) was 25.2 µM (inactive) and the GI50 (SNB-75) was 24.4 µM (inactive). For the same molecule, the GI50 (SR) was 2.94 µM (inactive), the GI50 (SW-620) was 4.45 µM (inactive) and the GI50 (T47D) was 14.1 µM (inactive). For the same molecule, the GI50 (TK-10) was 18.4 µM (inactive), the GI50 (U-251) was 17.7 µM (inactive) and the GI50 (UACC-257) was 17.6 µM (inactive). The GI50 (UACC-62) was 16.7 µM (inactive) and the GI50 (UO-31) was 11.2 µM (inactive).

In the case of CO[C@H]1[C@@H](O)[C@H](O[C@@H]2C[C@H]3CC[C@@H]4[C@H](CC[C@]5(C)[C@@H](C6=CC(=O)OC6)CC[C@]45O)[C@@]3(C)[C@H](OC(C)=O)C2)O[C@@H](C)[C@H]1O, the GI50 (786-0) is reported as 1.84 µM (inactive), the GI50 (A498) is reported as 1.31 µM (inactive) and the GI50 (A549) is reported as 0.384 µM (active). For the same molecule, the GI50 (ACHN) was 0.393 µM (active), the GI50 (BT-549) was 0.637 µM (active) and the GI50 (CAKI-1) was 0.533 µM (active). For the same molecule, the GI50 (CCRF-CEM) was 0.65 µM (active), the GI50 (COLO 205) was 2.06 µM (inactive) and the GI50 (DU-145) was 0.726 µM (active). For the same molecule, the GI50 (EKVX) was 1.29 µM (inactive), the GI50 (HCC 2998) was 7.18 µM (inactive) and the GI50 (HCT-116) was 0.76 µM (active). The GI50 (HCT-15) was 1.92 µM, the GI50 (HL-60) was 0.402 µM (active) and the GI50 (HOP-62) was 0.933 µM (active). The GI50 (HOP-92) was 2.54 µM (inactive), the GI50 (HT-29) was 3.04 µM (inactive) and the GI50 (Hs-578T) was 2.07 µM (inactive). The GI50 (IGROV-1) was 1.46 µM (inactive), the GI50 (K562) was 1.96 µM (inactive) and the GI50 (KM12) was 5.83 µM (inactive). The GI50 (LOX IMVI) was 1.52 µM (inactive), the GI50 (M14) was 2.22 µM (inactive) and the GI50 (MDA-MB-231) was 4.2 µM (inactive). The GI50 (MDA-MB-435) was 3.19 µM (inactive), the GI50 (MDA-N) was 1.64 µM (inactive) and the GI50 (MOLT-4) was 0.281 µM (active). The GI50 (Malme-3M) was 1.18 µM (inactive), the GI50 (NCI-H226) was 2.96 µM (inactive) and the GI50 (NCI-H23) was 0.662 µM (active). The GI50 (NCI-H460) was 0.465 µM (active), the GI50 (NCI-H522) was 0.574 µM (active) and the GI50 (NCI/ADR-RES) was 1.77 µM (inactive). The GI50 (OVCAR-3) was 0.573 µM (active), the GI50 (OVCAR-4) was 1.39 µM (inactive) and the GI50 (OVCAR-5) was 2.18 µM (inactive). The GI50 (OVCAR-8) was 1.73 µM (inactive), the GI50 (PC-3) was 2.26 µM (inactive) and the GI50 (RPMI-8226) was 2.05 µM (inactive). The GI50 (RXF 393) was 0.402 µM (active), the GI50 (SF-268) was 0.646 µM (active) and the GI50 (SF-295) was 1.13 µM (inactive). For the same molecule, the GI50 (SF-539) was 0.573 µM (active), the GI50 (SK-MEL-28) was 4.34 µM (inactive) and the GI50 (SK-MEL-2) was 2.88 µM (inactive). The GI50 (SK-MEL-5) was 0.494 µM (active), the GI50 (SK-OV-3) was 2.78 µM (inactive) and the GI50 (SN12C) was 0.552 µM (active). For the same molecule, the GI50 (SNB-19) was 4.28 µM (inactive), the GI50 (SNB-75) was 3.61 µM (inactive) and the GI50 (SW-620) was 2.36 µM (inactive). For the same molecule, the GI50 (T47D) was 3.19 µM (inactive), the GI50 (TK-10) was 1.17 µM (inactive) and the GI50 (U-251) was 2.54 µM (inactive). For the same molecule, the GI50 (UACC-257) was 2.84 µM (inactive), the GI50 (UACC-62) was 2.43 µM (inactive) and the GI50 (UO-31) was 1.27 µM (inactive).
